Experimental data published in ChEMBL document CHEMBL4196211, “In Vitro Mechanistic Study of the Anti-inflammatory Activity of a Quinoline Isolated from Spondias pinnata Bark” (J Nat Prod, 2018).
Activity calls are given as the source filed them. No cut-off for these calls is given here.

Experiments:
[1] = tested on: RAW264.7; assay: Cytotoxicity against mouse RAW264.7 cells assessed as reduction in cell viability at 50 to 100 uM after 48 hrs by WST-1 assay; type: cell-based; conditions: raw264.7, 48 h
[2] = tested on: RAW264.7; assay: Antiinflammatory activity against mouse RAW264.7 cells assessed as inhibition of LPS-induced nitrite production at 100 uM pretreated for 6 hrs followed by LPS stimulation measured after 24 hrs by […]; type: functional, cell-based
[3] = tested on: RAW264.7; assay: Antiinflammatory activity against mouse RAW264.7 cells assessed as inhibition of LPS-induced TNFalpha production at 100 uM pretreated for 6 hrs followed by LPS stimulation measured after 24 hrs by ELISA; type: functional, cell-based
[4] = tested on: RAW264.7; assay: Antiinflammatory activity against mouse RAW264.7 cells assessed as inhibition of LPS-induced IL-6 production at 50 to 100 uM pretreated for 6 hrs followed by LPS stimulation measured after 24 hrs by ELISA; type: functional, cell-based
[5] = tested on: RAW264.7; assay: Antiinflammatory activity against mouse RAW264.7 cells assessed as inhibition of LPS-induced IL-1beta production at 50 to 100 uM pretreated for 6 hrs followed by LPS stimulation measured after 24 hrs by ELISA; type: functional, cell-based
[6] = tested on: RAW264.7; assay: Antiinflammatory activity against mouse RAW264.7 cells assessed as inhibition of LPS-induced intracellular ROS production at 50 to 100 uM pretreated for 12 hrs followed by LPS stimulation measured after 24 hrs by DCF-DA probe based flow cytometry; type: functional, cell-based
[7] = tested on: RAW264.7; assay: Inhibition of NF-kappaB in mouse RAW264.7 cells assessed as reduction in LPS-induced iNOS expression level pretreated for 6 hrs followed by LPS stimulation measured after 24 hrs by Western blot analysis; type: cell-based
[8] = tested on: RAW264.7; assay: Inhibition of NF-kappaB in mouse RAW264.7 cells assessed as LPS-induced iNOS expression level at 50 uM pretreated for 6 hrs followed by LPS stimulation measured after 24 hrs by Western blot analysis (reference value: 5.69); type: cell-based
[9] = tested on: RAW264.7; assay: Inhibition of NF-kappaB in mouse RAW264.7 cells assessed as LPS-induced iNOS expression level at 70 uM pretreated for 6 hrs followed by LPS stimulation measured after 24 hrs by Western blot analysis (reference value: 5.69); type: cell-based
[10] = tested on: RAW264.7; assay: Inhibition of NF-kappaB in mouse RAW264.7 cells assessed as LPS-induced iNOS expression level at 100 uM pretreated for 6 hrs followed by LPS stimulation measured after 24 hrs by Western blot analysis (reference value: 5.69); type: cell-based
[11] = tested on: RAW264.7; assay: Inhibition of NF-kappaB in mouse RAW264.7 cells assessed as LPS-induced COX-2 expression level at 50 uM pretreated for 6 hrs followed by LPS stimulation measured after 24 hrs by Western blot analysis (reference value: 2.02); type: cell-based
[12] = tested on: RAW264.7; assay: Inhibition of NF-kappaB in mouse RAW264.7 cells assessed as LPS-induced COX-2 expression level at 75 uM pretreated for 6 hrs followed by LPS stimulation measured after 24 hrs by Western blot analysis (reference value: 2.02); type: cell-based
[13] = tested on: RAW264.7; assay: Inhibition of NF-kappaB in mouse RAW264.7 cells assessed as LPS-induced COX-2 expression level at 100 uM pretreated for 6 hrs followed by LPS stimulation measured after 24 hrs by Western blot analysis (reference value: 2.02); type: cell-based
[14] = tested on: RAW264.7; assay: Effect on beta-actin expression level in LPS-induced mouse RAW264.7 cells at 50 uM pretreated for 6 hrs followed by LPS stimulation measured after 24 hrs by Western blot analysis (reference value: 0.95); type: ADME, cell-based; conditions: raw264.7, 24 h
[15] = tested on: RAW264.7; assay: Effect on beta-actin expression level in LPS-induced mouse RAW264.7 cells at 75 uM pretreated for 6 hrs followed by LPS stimulation measured after 24 hrs by Western blot analysis (reference value: 0.95); type: ADME, cell-based; conditions: raw264.7, 24 h
[16] = tested on: RAW264.7; assay: Effect on beta-actin expression level in LPS-induced mouse RAW264.7 cells at 100 uM pretreated for 6 hrs followed by LPS stimulation measured after 24 hrs by Western blot analysis (reference value: 0.95); type: ADME, cell-based; conditions: raw264.7, 24 h
[17] = tested on: RAW264.7; assay: Inhibition of NF-kappaB in mouse RAW264.7 cells assessed as reduction in LPS-induced iNOS mRNA level at 50 to 100 uM by qRT-PCR analysis; type: cell-based
[18] = tested on: RAW264.7; assay: Inhibition of NF-kappaB in mouse RAW264.7 cells assessed as reduction in LPS-induced COX-2 mRNA level at 50 to 100 uM by qRT-PCR analysis; type: cell-based
[19] = tested on: RAW264.7; assay: Inhibition of NF-kappaB in mouse RAW264.7 cells assessed as reduction in LPS-induced TNFalpha mRNA level at 50 to 100 uM by qRT-PCR analysis; type: cell-based
[20] = tested on: RAW264.7; assay: Inhibition of NF-kappaB in mouse RAW264.7 cells assessed as reduction in LPS-induced IL-1beta mRNA level at 50 to 100 uM by qRT-PCR analysis; type: cell-based
[21] = tested on: RAW264.7; assay: Inhibition of NF-kappaB in mouse RAW264.7 cells assessed as reduction in LPS-induced IL-6 mRNA level at 50 to 100 uM by qRT-PCR analysis; type: cell-based
[22] = tested on: RAW264.7; assay: Inhibition of NF-kappaB nuclear localization in LPS-induced mouse RAW264.7 cells at 50 to 100 uM pretreated for 6 hrs followed by LPS stimulation measured after 2 hrs by DAPI/FITC staining based laser scanning confocal microscopy; type: cell-based
[23] = tested on: RAW264.7; assay: Effect on LPS-induced I-kappaB level in mouse RAW264.7 cells at 50 uM pretreated for 6 hrs followed by LPS stimulation measured after 2 hrs by Western blot analysis (reference value: 0.44); type: cell-based
[24] = tested on: RAW264.7; assay: Effect on LPS-induced I-kappaB level in mouse RAW264.7 cells at 75 uM pretreated for 6 hrs followed by LPS stimulation measured after 2 hrs by Western blot analysis (reference value: 0.44); type: cell-based
[25] = tested on: RAW264.7; assay: Effect on LPS-induced I-kappaB level in mouse RAW264.7 cells at 100 uM pretreated for 6 hrs followed by LPS stimulation measured after 2 hrs by Western blot analysis (reference value: 0.44); type: cell-based
[26] = species: Mus musculus; assay: Effect on LPS-induced I-kappaB phosphorylation at 50 uM pretreated for 6 hrs followed by LPS stimulation measured after 2 hrs by Western blot analysis (reference value: 2.22)
[27] = species: Mus musculus; assay: Effect on LPS-induced I-kappaB phosphorylation at 75 uM pretreated for 6 hrs followed by LPS stimulation measured after 2 hrs by Western blot analysis (reference value: 2.22)
[28] = species: Mus musculus; assay: Effect on LPS-induced I-kappaB phosphorylation at 100 uM pretreated for 6 hrs followed by LPS stimulation measured after 2 hrs by Western blot analysis (reference value: 2.22)
[29] = tested on: RAW264.7; assay: Inhibition of NF-kappaB in mouse RAW264.7 cells assessed as LPS-induced cytosolic NF-kappaB level at 50 uM pretreated for 6 hrs followed by LPS stimulation measured after 2 hrs by Western blot analysis (reference value: 0.13); type: cell-based
[30] = tested on: RAW264.7; assay: Inhibition of NF-kappaB in mouse RAW264.7 cells assessed as LPS-induced cytosolic NF-kappaB level at 75 uM pretreated for 6 hrs followed by LPS stimulation measured after 2 hrs by Western blot analysis (reference value: 0.13); type: cell-based
[31] = tested on: RAW264.7; assay: Inhibition of NF-kappaB in mouse RAW264.7 cells assessed as LPS-induced cytosolic NF-kappaB level at 100 uM pretreated for 6 hrs followed by LPS stimulation measured after 2 hrs by Western blot analysis (reference value: 0.13); type: cell-based
[32] = tested on: RAW264.7; assay: Effect on beta-actin expression level in LPS-induced mouse RAW264.7 cells at 50 uM pretreated for 6 hrs followed by LPS stimulation measured after 2 hrs by Western blot analysis (reference value: 0.99); type: ADME, cell-based; conditions: raw264.7, 2 h
[33] = tested on: RAW264.7; assay: Effect on beta-actin expression level in LPS-induced mouse RAW264.7 cells at 75 uM pretreated for 6 hrs followed by LPS stimulation measured after 2 hrs by Western blot analysis (reference value: 0.99); type: ADME, cell-based; conditions: raw264.7, 2 h
[34] = tested on: RAW264.7; assay: Effect on beta-actin expression level in LPS-induced mouse RAW264.7 cells at 100 uM pretreated for 6 hrs followed by LPS stimulation measured after 2 hrs by Western blot analysis (reference value: 0.99); type: ADME, cell-based; conditions: raw264.7, 2 h
[35] = tested on: RAW264.7; assay: Inhibition of NF-kappaB in mouse RAW264.7 cells assessed as LPS-induced nuclear NF-kappaB level at 50 uM pretreated for 6 hrs followed by LPS stimulation measured after 2 hrs by Western blot analysis (reference value: 6.77); type: cell-based
[36] = tested on: RAW264.7; assay: Inhibition of NF-kappaB in mouse RAW264.7 cells assessed as LPS-induced nuclear NF-kappaB level at 75 uM pretreated for 6 hrs followed by LPS stimulation measured after 2 hrs by Western blot analysis (reference value: 6.77); type: cell-based
[37] = tested on: RAW264.7; assay: Inhibition of NF-kappaB in mouse RAW264.7 cells assessed as LPS-induced nuclear NF-kappaB level at 100 uM pretreated for 6 hrs followed by LPS stimulation measured after 2 hrs by Western blot analysis (reference value: 6.77); type: cell-based
[38] = tested on: RAW264.7; assay: Effect on tubulin expression level in LPS-induced mouse RAW264.7 cells at 50 uM pretreated for 6 hrs followed by LPS stimulation measured after 2 hrs by Western blot analysis (reference value: 1.02); type: ADME, cell-based; conditions: raw264.7, 2 h
[39] = tested on: RAW264.7; assay: Effect on tubulin expression level in LPS-induced mouse RAW264.7 cells at 75 uM pretreated for 6 hrs followed by LPS stimulation measured after 2 hrs by Western blot analysis (reference value: 1.02); type: ADME, cell-based; conditions: raw264.7, 2 h
[40] = tested on: RAW264.7; assay: Effect on tubulin expression level in LPS-induced mouse RAW264.7 cells at 100 uM pretreated for 6 hrs followed by LPS stimulation measured after 2 hrs by Western blot analysis (reference value: 1.02); type: ADME, cell-based; conditions: raw264.7, 2 h
[41] = tested on: RAW264.7; assay: Inhibition of LPS-induced I-kappaB phosphorylation in mouse RAW264.7 cells pretreated for 6 hrs followed by LPS stimulation measured after 2 hrs by Western blot analysis; type: cell-based
[42] = tested on: RAW264.7; assay: Antiinflammatory activity against mouse RAW264.7 cells assessed as inhibition of LPS-induced nitrite production at 20 uM pretreated for 6 hrs followed by LPS stimulation measured after 24 hrs by […]; type: functional, cell-based
[43] = tested on: RAW264.7; assay: Antiinflammatory activity against mouse RAW264.7 cells assessed as inhibition of LPS-induced TNFalpha production at 20 uM pretreated for 6 hrs followed by LPS stimulation measured after 24 hrs by ELISA; type: functional, cell-based
[44] = tested on: RAW264.7; assay: Antiinflammatory activity against mouse RAW264.7 cells assessed as inhibition of LPS-induced IL-6 production at 20 uM pretreated for 6 hrs followed by LPS stimulation measured after 24 hrs by ELISA; type: functional, cell-based
[45] = tested on: RAW264.7; assay: Antiinflammatory activity against mouse RAW264.7 cells assessed as inhibition of LPS-induced IL-1beta production at 20 uM pretreated for 6 hrs followed by LPS stimulation measured after 24 hrs by ELISA; type: functional, cell-based

## COc1cc2ccc(=O)[nH]c2cc1O
[1]
  Activity: Non-Toxic
[2]
  inhibition: Active
[3]
  inhibition: Active
[4]
  inhibition: Active
[5]
  inhibition: Active
[6]
  inhibition: Active
[7]
  inhibition: Dose-dependent effect
[8]
  fold change (FC): 3.4
[9]
  fold change (FC): 1.98
[10]
  fold change (FC): 1.04
[11]
  fold change (FC): 1.72
[12]
  fold change (FC): 1.29
[13]
  fold change (FC): 1.02
[14]
  fold change (FC): 0.95
[15]
  fold change (FC): 1
[16]
  fold change (FC): 0.96
[17]
  inhibition: Active
[18]
  inhibition: Active
[19]
  inhibition: Active
[20]
  inhibition: Active
[21]
  inhibition: Active
[22]
  inhibition: Active
[23]
  fold change (FC): 0.64
[24]
  fold change (FC): 0.85
[25]
  fold change (FC): 0.99
[26]
  fold change (FC): 1.86
[27]
  fold change (FC): 1.11
[28]
  fold change (FC): 1.05
[29]
  fold change (FC): 0.3
[30]
  fold change (FC): 0.91
[31]
  fold change (FC): 0.97
[32]
  fold change (FC): 0.94
[33]
  fold change (FC): 0.96
[34]
  fold change (FC): 1
[35]
  fold change (FC): 5.25
[36]
  fold change (FC): 3.89
[37]
  fold change (FC): 1.56
[38]
  fold change (FC): 0.93
[39]
  fold change (FC): 0.96
[40]
  fold change (FC): 1.01
[41]
  inhibition: Dose-dependent effect

## C[C@@H]1C[C@H]2[C@@H]3CCC4=CC(=O)C=C[C@]4(C)[C@@]3(F)[C@@H](O)C[C@]2(C)[C@@]1(O)C(=O)CO
[42]
  inhibition: Active
[43]
  inhibition: Active
[44]
  inhibition: Active
[45]
  inhibition: Active
